Laboratory results taken from patent publication US20030068386A1, “Method of treating cancerous disease” (priority 2001, published 2003).

Columns and labels:
normal human fibroblasts = assay: AS-induced toxicity to normal human fibroblasts, crystal violet cell number; format: cell-based; settings: for effect on AS cytotoxicity to human fibroblasts: ascorbic acid 5 mM, POBN 10 mM, DMSO 0.2 M in incubation medium
Description: Human fetal fibroblasts were cultured as described herein. Briefly, human fetal hearts of gestational age 16-24 weeks are aseptically obtained after elective termination of normal pregnancy by dilatation and evacuation. The aorta is then cannulated for continuous perfusion of the coronary arteries with calcium-free Tyrode's solution (117 mM NaCl, 5.7 mM KCl, 11 mM glucose, 4.4 mM NaHCO3, 1.5 mM KH2PO4, 1.7 mM MgCl2, HEPES 20 mM, pH 7.4) containing 1 U/ml of Na-heparin at 37° C., bubbled with 100% O2 as described for the Langendorff preparation. After 15 min of washing to clear the blood from the heart, fresh calcium-free Tyrode's solution containing 1.5 mg/ml collagenase A (type III) is recirculated for approximately 20 minutes. The heart dissociates spontaneously, allowing cells to slowly drip and fall on a Petri dish containing 0.25% trypsin, 1 mM EDTA in HBSS. Clumps of cells are dissociated and the resulting suspension poured over a cell strainer. Cells are centrifuged and the pellet resuspended in 20 ml of culture medium [DME supplemented with 10% fetal bovine serum, 50 U/ml PCN, 50 U/ml streptomycin, […] gentamicin, 1 mM non-essential amino acid (Gibco Laboratories), 0.1 mM essential medium vitamins (Gibco Laboratories), 2 mM glutamine, 0.1 mM Na pyruvate]. To obtain primary cardiac fibroblasts, the isolate will be plated in flasks (20 min at 37° C.). The fibroblasts will be passaged at 12×10^6 cells per 75 cm2 culture flask and grown in 5% CO2 at 37° C. After 3 passages in culture, the fibroblast stain using the fibroblast-specific antibody (monoclonal anti-human fibroblast surface protein, Clone 1B10).
The concentration of the hydroxylamine was determined by co-injection of 4-methylpicoline as described in Analytical Chemistry, Stoyanovsky, et al., supra. […] Normal human fibroblasts (800 cells per plate) were treated for 30 minutes at 37° C. with AS in 50 mM phosphate buffer (pH 6.3, open circles; pH 7.4, filled circles) containing 0.15 M NaCl and 0.2 mM CaC12. Thereafter, the fluid was removed, the cells were covered with minimal essential medium containing 10% fetal bovine serum (Sigma Chem. Co.,St. Louis, Mo.) and incubated at 37° C.; after 4 hours, the cell number was determined by the crystal violet method as known by those skilled in the art. Results are from four independent experiments. Each experimental point represents the mean of triplicate±SEM % (Mean value±standard error; n=3) of controls. […] The cells were treated as indicated in FIG. 5B except that in the incubation medium was included (1) ascorbic acid (5 mM) plus SOD (superoxide dismuthase)(300 U per ml) plus catalase (500 U per ml) filled circles, all purchased from Sigma Chem. Co.; (2) POBN (10 mM) open circles; or 3. DMSO ([…]) filled triangles.

[1] = system: breast cancer cells (BRCA1, OMIM Number 113705); assay: AS-induced toxicity to breast cancer cells, crystal violet cell number; format: cell-based, human
[2] = cited from earlier work

C[S+](C)[O-] [DMSO, dimethyl sulfoxide, reference compound]
effect on AS cytotoxicity to human fibroblasts (normal human fibroblasts): protective effect

O=C1O[C@H]([C@@H](O)CO)C(O)=C1O [ascorbic acid, reference compound]
effect on AS cytotoxicity to human fibroblasts (normal human fibroblasts): protective effect

[Na+].[Na+].[O-][N+]([O-])=NO [AS, sodium trioxodinitrate]
death of treated cells ([1]; pH 6.2, 30 minutes at 37° C. with AS, cell number after 4 hours): approximately 70%
cell toxicity ([1]; pH 7.4): not observed
stability ([2]; alkaline solutions): relatively stable
pK1 ([2]; aqueous solution): 3.0
pK2 ([2]; aqueous solution): 9.35
rate of decomposition ([2]; pH interval of 3.5 to 8.5): rapid, proton-independent
toxicity to normal human fibroblasts (normal human fibroblasts; acidic conditions): toxic
toxicity to normal human fibroblasts (normal human fibroblasts; non-acidic conditions): not toxic
cell toxicity (normal human fibroblasts; pH 7.4): not observed

CC(C)(C)[N+]([O-])=Cc1cc[n+]([O-])cc1 [POBN, alpha-(4-Pyridyl-1-oxide)-N-tert-butylnitrone, reference compound]
effect on AS cytotoxicity to human fibroblasts (normal human fibroblasts): protective effect
